According to ChEMBL document CHEMBL5620362 (Eur J Med Chem, 2023):
The source made the active and inactive calls. No cut-off for these calls is given here.

Key:
HPAF-II [1] = test: Induction of apoptosis in human HPAF-II cells assessed as viable cells at 10 uM incubated for 48 hrs by Annexin V-FITC/PI staining based flow cytometry (reference value: 89.73 %); format: functional; details: read-out: Activity
HPAF-II [2] = test: Induction of apoptosis in human HPAF-II cells assessed as early apoptotic cells at 10 uM incubated for 48 hrs by Annexin V-FITC/PI staining based flow cytometry (reference value: 0.90 %); format: functional
HPAF-II [3] = test: Induction of apoptosis in human HPAF-II cells assessed as necrotic cells at 10 uM incubated for 48 hrs by Annexin V-FITC/PI staining based flow cytometry (reference value: 8.09 %); format: functional
HPAF-II [4] = test: Induction of apoptosis in human HPAF-II cells assessed as viable cells at 1 uM incubated for 48 hrs by Annexin V-FITC/PI staining based flow cytometry (reference value: 89.73 %); format: functional; details: read-out: Activity
HPAF-II [5] = test: Induction of apoptosis in human HPAF-II cells assessed as late apoptotic cells at 1 uM incubated for 48 hrs by Annexin V-FITC/PI staining based flow cytometry (reference value: 1.28 %); format: functional
HPAF-II [6] = test: Induction of apoptosis in human HPAF-II cells assessed as early apoptotic cells at 0.1 uM incubated for 48 hrs by Annexin V-FITC/PI staining based flow cytometry (reference value: 0.90 %); format: functional
HPAF-II [7] = test: Induction of apoptosis in human HPAF-II cells assessed as late apoptotic cells at 0.1 uM incubated for 48 hrs by Annexin V-FITC/PI staining based flow cytometry (reference value: 1.28 %); format: functional
HPAF-II [8] = test: Induction of apoptosis in human HPAF-II cells assessed as early apoptotic cells at 0.01 uM incubated for 48 hrs by Annexin V-FITC/PI staining based flow cytometry (reference value: 0.90 %); format: functional
HPAF-II [9] = test: Induction of apoptosis in human HPAF-II cells assessed as late apoptotic cells at 0.01 uM incubated for 48 hrs by Annexin V-FITC/PI staining based flow cytometry (reference value: 1.28 %); format: functional
NCI-H23 [10] = test: Induction of apoptosis in human NCI-H23 cells assessed as early apoptotic cells at 10 uM incubated for 48 hrs by Annexin V-FITC/PI staining based flow cytometry (reference value: 4.17 %); format: functional
NCI-H23 [11] = test: Induction of apoptosis in human NCI-H23 cells assessed as necrotic cells at 10 uM incubated for 48 hrs by Annexin V-FITC/PI staining based flow cytometry (reference value: 0.78 %); format: functional
NCI-H23 [12] = test: Induction of apoptosis in human NCI-H23 cells assessed as viable cells at 1 uM incubated for 48 hrs by Annexin V-FITC/PI staining based flow cytometry (reference value: 92.16 %); format: functional; details: read-out: Activity
NCI-H23 [13] = test: Induction of apoptosis in human NCI-H23 cells assessed as early apoptotic cells at 1 uM incubated for 48 hrs by Annexin V-FITC/PI staining based flow cytometry (reference value: 4.17 %); format: functional
NCI-H23 [14] = test: Induction of apoptosis in human NCI-H23 cells assessed as late apoptotic cells at 1 uM incubated for 48 hrs by Annexin V-FITC/PI staining based flow cytometry (reference value: 2.89 %); format: functional
NCI-H23 [15] = test: Induction of apoptosis in human NCI-H23 cells assessed as necrotic cells at 1 uM incubated for 48 hrs by Annexin V-FITC/PI staining based flow cytometry (reference value: 0.78 %); format: functional
NCI-H23 [16] = test: Induction of apoptosis in human NCI-H23 cells assessed as necrotic cells at 0.1 uM incubated for 48 hrs by Annexin V-FITC/PI staining based flow cytometry (reference value: 0.78 %); format: functional
NCI-H23 [17] = test: Induction of apoptosis in human NCI-H23 cells assessed as late apoptotic cells at 0.01 uM incubated for 48 hrs by Annexin V-FITC/PI staining based flow cytometry (reference value: 2.89 %); format: functional
MV4-11 = test: Anticancer activity against human MV4-11 cells incubated for 72 hrs; format: functional, cell-based
NCI-H1373 = test: Anticancer activity against human NCI-H1373 cells incubated for 72 hrs; format: functional, cell-based
NCI-H23 [18] = test: Anticancer activity against human NCI-H23 cells incubated for 72 hrs; format: functional, cell-based
BXPC-3 = test: Anticancer activity against human BXPC-3 cells incubated for 72 hrs; format: functional, cell-based
MIA PaCa-2 = test: Anticancer activity against human MIA PaCa-2 cells incubated for 72 hrs; format: functional, cell-based
PANC-1 = test: Anticancer activity against human PANC-1 cells incubated for 72 hrs; format: functional, cell-based
CFPAC-1 = test: Anticancer activity against human CFPAC-1 cells incubated for 72 hrs; format: functional, cell-based
HEK-293T = test: Cytotoxicity against HEK293T cells incubated for 72 hrs; format: toxicity, cell-based; details: human
HPAF-II [19] = test: Induction of apoptosis in human HPAF-II cells assessed as increase in cleaved PARP level at 0.1 to 1 uM incubated for 48 hrs by Western blot analysis; format: functional, cell-based; details: dose 0.1-1 µM
HPAF-II [20] = test: Downregulation of phosphorylated MEK expression in human HPAF-II cells at 0.1 to 1 uM incubated for 48 hrs by Western blot analysis; format: functional, cell-based; details: dose 0.1-1 µM
HPAF-II [21] = test: Downregulation of phosphorylated ERK expression in human HPAF-II cells at 0.1 to 1 uM incubated for 48 hrs by Western blot analysis; format: functional, cell-based; details: dose 0.1-1 µM
HPAF-II [22] = test: Cytotoxicity against human HPAF-II cells harboring siROR-gamma assessed as decrease in cell viability at 0.1 uM incubated for 72 hrs by SRB assay; format: functional, cell-based
HPAF-II [23] = test: Induction of apoptosis in human HPAF-II cells harboring siROR-gamma at 0.1 uM incubated for 24 hrs by Annexin V-FITC/PI staining based flow cytometry; format: functional, cell-based
HPAF-II [24] = test: Downregulation of MEK phosphorylation level in human HPAF-II cells harboring siROR-gamma at 0.1 uM by Western blot analysis; format: functional, cell-based
[25] = AUClast in ICR mouse at 3 mg/kg, iv; format: ADME, organism-based; details: in vivo
[26] = AUC (infinity) in ICR mouse at 3 mg/kg, iv; format: ADME, organism-based; details: in vivo
[27] = MRT (infinity) in ICR mouse at 3 mg/kg, iv; format: ADME, organism-based; details: in vivo
[28] = Clearance in ICR mouse at 3 mg/kg, iv; format: ADME, organism-based; details: in vivo
[29] = Half life in ICR mouse at 10 mg/kg, po; format: ADME, organism-based; details: in vivo
[30] = Tmax in ICR mouse at 10 mg/kg, po; format: ADME, organism-based; details: in vivo
[31] = MRT (infinity) in ICR mouse at 10 mg/kg, po; format: ADME, organism-based; details: in vivo
HPAF-II [32] = test: Antitumor activity against human HPAF-II cells xenografted in nude Balb/cA mouse assessed as tumor growth inhibition at 90 mg/kg, po qd measured for 12 days relative to control; format: functional; design: scale not given: the % may be the effect or the level left; details: time 12 day
HPAF-II [33] = test: Antitumor activity against human HPAF-II cells xenografted in nude Balb/cA mouse assessed as tumor growth inhibition at 150 mg/kg, po qd measured for 12 days relative to control; format: functional; design: scale not given: the % may be the effect or the level left; details: time 12 day
HPAF-II [34] = test: Antitumor activity against human HPAF-II cells xenografted in nude Balb/cA mouse assessed as tumor growth inhibition at 180 mg/kg, po qd measured for 12 days relative to control; format: functional; design: scale not given: the % may be the effect or the level left; details: time 12 day
HPAF-II [35] = test: Antitumor activity against human HPAF-II cells xenografted in nude Balb/cA mouse assessed as tumor growth inhibition at 15 mg/kg, ip qd measured for 12 days relative to control; format: functional; design: scale not given: the % may be the effect or the level left; details: time 12 day

C=C(C)[C@@H]1CC[C@]2(C(=O)NCCCN(C)C)CC[C@]3(C)[C@H](CC[C@@H]4[C@@]5(C)CC[C@H](O)C(C)(C)[C@@H]5CC[C@]43C)[C@@H]12
viability at 10 µM (HPAF-II [1]): 5.04%
Activity (HPAF-II [2]): 48.86%
Activity (HPAF-II [3]): 3.33%
viability at 1 µM (HPAF-II [4]): 38.2%
Activity (HPAF-II [5]): 20.27%
Activity (HPAF-II [6]): 23.73%
Activity (HPAF-II [7]): 12.13%
Activity (HPAF-II [8]): 5.34%
Activity (HPAF-II [9]): 4.48%
Activity (NCI-H23 [10]): 64.02%
Activity (NCI-H23 [11]): 0.61%
viability at 1 µM (NCI-H23 [12]): 12.7%
Activity (NCI-H23 [13]): 67.63%
Activity (NCI-H23 [14]): 18.15%
Activity (NCI-H23 [15]): 1.48%
Activity (NCI-H23 [16]): 4.71%
Activity (NCI-H23 [17]): 6.78%
Activity (MV4-11): Active
Activity (NCI-H1373): Active
Activity (NCI-H23 [18]): Active
Activity (BXPC-3): Active
Activity (MIA PaCa-2): Active
Activity (PANC-1): Active
Activity (CFPAC-1): Active
Activity (HEK-293T): Non-Toxic
Activity (HPAF-II [19]): Active
Activity (HPAF-II [20]): Active
Activity (HPAF-II [21]): Active
Activity (HPAF-II [22]): inactive
Activity (HPAF-II [23]): inactive
Activity (HPAF-II [24]): Active
AUC(0-t) [25]: 2980 ng·h/mL
AUC(0-inf) [26]: 3050 ng·h/mL
MRT inf [27]: 5.22 h
clearance [28]: 16.5 mL/min/kg
half-life [29]: 11.9 h
Tmax [30]: 2 h
MRT inf [31]: 16.6 h
Activity (HPAF-II [32]): 21%
Activity (HPAF-II [33]): 39%
Activity (HPAF-II [34]): 49%
Activity (HPAF-II [35]): 76%
